US12252490B2, “Inhibiting deubiquitinase USP25 and USP28” (Valo Health, Inc., priority 2018, dated 2025)

Target: T1, USP25 (USP25-His6) (Homo sapiens, UniProt Q9UHP3)
T1 construct: His6 (C); purchased Boston Biochem E-546
T1 sequence (Q9UHP3 1-1055): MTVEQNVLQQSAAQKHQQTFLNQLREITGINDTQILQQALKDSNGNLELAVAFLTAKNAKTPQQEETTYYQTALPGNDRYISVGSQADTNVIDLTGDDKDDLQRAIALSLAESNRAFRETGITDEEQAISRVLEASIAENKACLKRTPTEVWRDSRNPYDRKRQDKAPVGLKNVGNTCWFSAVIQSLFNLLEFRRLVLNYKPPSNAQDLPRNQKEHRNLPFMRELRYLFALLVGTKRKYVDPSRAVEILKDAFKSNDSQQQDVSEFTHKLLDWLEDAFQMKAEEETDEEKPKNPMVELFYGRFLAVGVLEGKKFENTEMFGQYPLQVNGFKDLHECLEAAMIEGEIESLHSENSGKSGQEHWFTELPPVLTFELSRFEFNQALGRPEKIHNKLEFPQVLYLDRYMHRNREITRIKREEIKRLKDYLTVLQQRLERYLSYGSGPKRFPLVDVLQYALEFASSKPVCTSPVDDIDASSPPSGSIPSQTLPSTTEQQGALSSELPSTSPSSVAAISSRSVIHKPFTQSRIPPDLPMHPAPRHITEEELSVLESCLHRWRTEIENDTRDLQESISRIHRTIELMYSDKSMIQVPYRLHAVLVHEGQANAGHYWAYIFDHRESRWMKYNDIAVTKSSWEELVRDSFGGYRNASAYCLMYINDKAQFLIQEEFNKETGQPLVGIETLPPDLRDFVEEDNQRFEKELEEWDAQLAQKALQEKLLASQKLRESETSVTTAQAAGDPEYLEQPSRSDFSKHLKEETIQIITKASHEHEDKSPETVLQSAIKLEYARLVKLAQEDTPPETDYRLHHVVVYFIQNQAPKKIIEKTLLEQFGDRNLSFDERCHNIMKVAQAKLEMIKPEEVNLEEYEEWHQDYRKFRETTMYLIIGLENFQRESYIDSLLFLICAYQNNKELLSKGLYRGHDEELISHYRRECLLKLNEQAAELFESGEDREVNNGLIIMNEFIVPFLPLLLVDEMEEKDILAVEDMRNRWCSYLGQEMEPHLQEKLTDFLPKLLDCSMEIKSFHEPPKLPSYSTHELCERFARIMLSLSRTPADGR
Assay: Ubiquitin-Rhodamine 110 Assay for USP25 Activity, Example A-2
Assay type: biochemical
Conditions: USP25, 75 pM enzyme, 25 nM Ub-Rh110, 30 min preincubation; read-out: Assay A-2 (IC50 range)
Protocol: The assay was performed in a final volume of 9 μL in assay buffer containing 20 mM Tris-HCl (pH 8.0, (1M Tris-HCl, pH 8.0 solution; Corning 46-031-CM)), 3 mM BME (2-Mercaptoethanol; Sigma 63689-25ML-F), 0.03% BGG (0.22 μM filtered, Sigma, G7516-25G), and 0.01% Triton X-100 (Sigma, T9284-10L). Nanoliter quantities of 10-point, 3-fold serial dilution in DMSO was pre-dispensed into 1536 assay plates (Corning, #3724BC) for a final test concentration of 25 μM to 1.3 nM, top to lowest dose, respectively. Enzyme USP25, construct USP25-His6, (Boston Biochem E-546). Concentration and incubation times were optimized for the maximal signal-to-background while maintaining initial velocity conditions at a fixed substrate concentration. The final concentration of the enzyme in the assay was 75 pM. Final substrate (Ub-Rh110; Ubiquitin-Rhodamine 110, R&D Systems #U-555) concentration was 25 nM with [Ub-Rh110]<<Km. 3 μL of 2× enzyme was added to assay plates (pre-stamped with compound) preincubated with […] for 30 minutes and then 3 μL of 2×Ub-Rh110 was added to assay plates. Plates were incubated for 45 minutes at room temperature before addition of 3 μL of stop solution (final concentration of 10 mM citric acid (Sigma, 251275-500G)). Fluorescence was read on the Envision (Excitation at 485 nm and Emission at 535 nm; Perkin Elmer) or on the PheraSTAR (Excitation at 485 nm and Emission at 535 nm; BMG Labtech).
For assay formats Examples A-1a, A-1b, and A-2, data were reported as percent inhibition compared with control wells based on the following equation: % inh=1−((FLU−AveLow)/(AveHigh−AveLow)) where FLU=measured Fluorescence, AveLow=average Fluorescence of no enzyme control (n=16), and AveHigh=average Fluorescence of DMSO control (n=16). IC50 values were determined by curve fitting of the standard 4 parameter logistic fitting algorithm included in the Activity Base software package: IDBS XE Designer Model205. Data is fitted using the Levenburg Marquardt algorithm.

| Structure (SMILES) | IC50 |
| --- | --- |
| CCn1ccc2cc(C(=O)NC[C@@H](C)c3cc(F)c(N4CCNCC4)cc3F)cnc21 (single isomer, unassigned) [Example 2-1] | 200 to 2000 nM |
| CCn1ccc2cc(C(=O)NC[C@H](C)c3cc(F)c(N4CCNCC4)cc3F)cnc21 (single isomer, unassigned) [Example 2-2] | 2000 to 10000 nM |
| CCn1ccc2cc(C(=O)NC[C@H](C)c3cc(F)c(N4CC5CCC(C4)N5)cc3F)cnc21 (single isomer, unassigned) [Example 2-3] | 200 to 2000 nM |
| CCn1ccc2cc(C(=O)NC[C@@H](C)c3cc(F)c(N4CC5CCC(C4)N5)cc3F)cnc21 (single isomer, unassigned) [Example 2-4] | 200 to 2000 nM |
| CCn1ccc2cc(C(=O)NC[C@H](C)c3cc(F)c(N4CC5CCC(C4)N5)cc3F)nnc21 (single isomer, unassigned) [Example 4-2] | 200 to 2000 nM |
| CCn1ccc2cc(C(=O)NC[C@@H](C)c3cc(F)c(N4CC5CCC(C4)N5)cc3F)nnc21 (single isomer, unassigned) [Example 4-3] | 200 to 2000 nM |
| CCn1ccc2cc(C(=O)NCCc3cc(F)c(N4CC5CCC(C4)N5)cc3F)cnc21 [Example 1-1, N-[2-(4-[3,8-diazabicyclo[3.2.1]octan-3-yl]-2,5-difluorophenyl)ethyl]-1-ethyl-1H-pyrrolo[2,3-b]pyridine-5-carboxamide] | 50 to 200 nM |
| O=C(NCCc1ccc(N2CCNCC2)cc1)c1cnc2[nH]ccc2c1 [Example 1-2, N-(4-(piperazin-1-yl)phenethyl)-1H-pyrrolo[2,3-b]pyridine-5-carboxamide] | 200 to 2000 nM |
| Cn1ccc2cc(C(=O)NCCc3ccc(N4CCNCC4)cc3)cnc21 [Example 1-3, 1-methyl-N-(4-(piperazin-1-yl)phenethyl)-1H-pyrrolo[2,3-b]pyridine-5-carboxamide] | 200 to 2000 nM |
| CCn1ccc2cc(C(=O)NCCc3ccc(N4CCNCC4)cc3)cnc21 [Example 1-4, 1-ethyl-N-(4-(piperazin-1-yl)phenethyl)-1H-pyrrolo[2,3-b]pyridine-5-carboxamide] | 200 to 2000 nM |
| Nc1c(C(=O)NCCc2ccc(N3CCNCC3)cc2)cnc2[nH]ccc12 [Example 1-5, 4-amino-N-(4-(piperazin-1-yl)phenethyl)-1H-pyrrolo[2,3-b]pyridine-5-carboxamide] | 2000 to 10000 nM |
| CCn1ccc2cc(C(=O)NCCc3ccc(N4CC5CCC(C4)N5)cc3)cnc21 [Example 1-6, N-(4-(3,8-diazabicyclo[3.2.1]octan-3-yl)phenethyl)-1-ethyl-1H-pyrrolo[2,3-b]pyridine-5-carboxamide] | 50 to 200 nM |
| CCn1ccc2cc(C(=O)NCCc3cc(F)c(N4CCNCC4)cc3F)cnc21 [Example 1-7, N-(2,5-difluoro-4-(piperazin-1-yl)phenethyl)-1-ethyl-1H-pyrrolo[2,3-b]pyridine-5-carboxamide] | 200 to 2000 nM |
| O=C(NCCc1ccc(N2CCNCC2)cc1)c1cnc2c(ccn2CC(F)(F)F)c1 [Example 1-8] | 50 to 200 nM |
| CC(C)(O)Cn1ccc2cc(C(=O)NCCc3cc(F)c(N4CC5CCC(C4)N5)cc3F)cnc21 [Example 1-9, N-(4-(3,8-diazabicyclo[3.2.1]octan-3-yl)-2,5-difluorophenethyl)-1-(2-hydroxy-2-methylpropyl)-1H-pyrrolo[2,3-b]pyridine-5-carboxamide] | > 10000 nM |
| CCn1ccc2cc(C(=O)NCCc3ccc(N4CC5CCC(C4)N5)c(F)c3)cnc21 [Example 1-10, N-(4-(3,8-diazabicyclo[3.2.1]octan-3-yl)-3-fluorophenethyl)-1-ethyl-1H-pyrrolo[2,3-b]pyridine-5-carboxamide] | 200 to 2000 nM |
| CCn1cc(Cl)c2cc(C(=O)NCCc3ccc(N4CCNCC4)cc3)cnc21 [Example 3-1, 3-Chloro-1-ethyl-N-[2-[4-(piperazin-1-yl)phenyl]ethyl]-1H-pyrrolo[2,3-b]pyridine-5-carboxamide] | 50 to 200 nM |
| O=C(NCCc1ccc(N2CCNCC2)cc1)c1cnc2[nH]cc(Cl)c2c1 [Example 3-2, 3-chloro-N-(4-(piperazin-1-yl)phenethyl)-1H-pyrrolo[2,3-b]pyridine-5-carboxamide] | 2000 to 10000 nM |
| CCn1ccc2cc(C(=O)NCCc3cc(F)c(N4CC5CCC(C4)N5)cc3F)nnc21 [Example 4-1, N-[2-(4-[3,8-diazabicyclo[3.2.1]octan-3-yl]-2,5-difluorophenyl)ethyl]-7-ethyl-7H-pyrrolo[2,3-c]pyridazine-3-carboxamide] | 200 to 2000 nM |
| CCn1cc(Cl)c2cc(C(=O)NCCc3cc(F)c(N4CC5CCC(C4)N5)cc3F)nnc21 [Example 4-4, N-(4-(3,8-diazabicyclo[3.2.1]octan-3-yl)-2,5-difluorophenethyl)-5-chloro-7-ethyl-7H-pyrrolo[2,3-c]pyridazine-3-carboxamide] | 50 to 200 nM |
